Laboratory results reported in patent US20120029066A1, “USE OF FLAVONES FOR TREATING PSYCHIATRIC DISORDERS WITH SENSORIMOTOR GATING DEFICITS” (Taipei Medical University, priority 2010, published 2012).

Assays:
[1] = tested on: mice; assay: Prepulse inhibition (PPI) of acoustic startle response, test compounds i.p.; settings: for effect of psychotomimetic alone on pre-pulse inhibition of the startle response: control experiment, KET 30 mg/Kg i.p. or MeAmph 2 mg/Kg i.p.; for rescue of PPI disruption induced by methamphetamine: MeAmPh 2 mg/kg i.p., 71 dB-prepulse protocol, FIG. 7
[2] = tested on: mice; assay: PPI of startle response after bilateral intra-cerebella microinjection of test compounds; format: in vivo; settings: for reinstating ketamine induced PPI disruption: FIG. 4, FIG. 5
Procedure: In view of the finding in FIGS. 2 and 3, test compounds (e.g., hispidulin or Ro-154513) were microinjected into cerebella (e.g., i.cb microinjection) of the test animals to confirm the action site of hispidulin, by observing whether the MeAmph, KET, or MK-801-induced PPI disruption may be rescued.
Briefly, the mice were anaesthetized with pentobarbital (100 mg/kg i.p.) and placed in a stereotaxic frame. After shaving the hair, the skull surface was exposed by an incision. The head position of the mice was adjusted so that the bregma-lambda axis was horizontal. Then, two 24 gauge stainless-steel cannulae were implanted bilaterally into the lateral cerebellum (−6.4 mm caudal, ±1.5 mm lateral, −1.0 mm ventral from Bregma), according to stereotaxic coordinates (Paxions, 2001). Three stainless steel screws and dental cement were used to fix the cannulae on the top of the skull. The animal was allowed to fully recover after surgery for at least one week before the behavioral experiments were conducted.
On the day of experiment, test compounds were injected through the embedded cannula at 0.5 μl on each side of the cerebellum for 30 s and waited for 1 min to allow the injected compounds to diffuse into the cerebellum. PPI test were conducted as described in Example 2. After experiments, methylene blue was microinjected (0.5 μl/side) and animals were sacrificed and cerebellar slices were dissected to confirm the microinjection site. The data was discarded in the mice with incorrect microinjection sites.

[3] = tested on: Male ICR mice; assay: Methamphetamine-induced hyperlocomotion, locomotor activity test; format: in vivo; settings: 10 mg/Kg i.p. after methamphetamine 2 mg/kg; test after 15 minutes; FIG. 1
Procedure: Male ICR mice (25-35 g) were used in this study. They were bred, housed and maintained in the animal facility center with temperature- and humidity-controlled and 12:12 light dark cycle in National Taiwan University Medical College (NTUM) (Taiwan, R.O.C.). All animal experiments were carried out in accordance with the guidelines established by the Institutional Animal Care and Utilization Committee of the respective university.
Methamphetamine (MeAmPh, 2 mg/kg) was injected into mice to induce hyperlocomotion in the mice as a typical model for behavioral experiments.
After 15 minutes, the treated mice were then subjected to locomotor activity test.
Data herein are expressed as the mean±S.E.M and the n number indicates the number of the mice used. Statistical comparisons between the data in control and treatment conditions were analyzed by Student's t test. An effect was considered statistically significant if the p value was less than 0.05.

[4] = 71 or 77 dB prepulse, 115 dB pulse
[5] = 10 nmol i.cb., KET 30 mg/Kg i.p.

## CN[C@@H](C)Cc1ccccc1 [MeAmph, methamphetamine, reference compound]
[1]; [4]
  effect of psychotomimetic alone on pre-pulse inhibition of the startle response: inhibited the pre-pulse inhibition

## NS(=O)(=O)c1cc(C(=O)O)c(NCc2ccco2)cc1Cl [furosemide, reference compound]
[2]; furosemide 50 nmol i.cb., reinstatement by Ro-154513 or hispidulin 10 nmol i.cb., KET 30 mg/Kg i.p., FIG. 6
  effect on the reinstated ketamine induced PPI disruption: antagonized
[2]; furosemide 50 nmol i.cb., reinstatement by Ro-154513 or hispidulin 10 nmol i.cb., MeAmPh 2 mg/Kg i.p., FIG. 6
  effect on the reinstated methamphetamine induced PPI disruption: antagonized

## COc1c(O)cc2oc(-c3ccc(O)cc3)cc(=O)c2c1O [hispidulin]
[3]
  decreasing MeAmph-induced hyperlocomotor activity: active
[2]; [5]
  reinstating ketamine induced PPI disruption: effective in reinstating
[2]; 10 nmol i.cb., MK-801 0.3 mg/Kg i.p., FIG. 4
  reinstating MK-801 induced PPI disruption: effective in reinstating
[2]; 10 nmol i.cb., methamphetamine 2 mg/Kg i.p., FIG. 4
  reinstating methamphetamine induced PPI disruption: effective in reinstating
[1]; 10 mg/Kg i.p., 15-minute before KET 30 mg/Kg i.p., 71 or 77 dB prepulse, 115 dB pulse, FIG. 2
  rescue of KET impaired PPI inhibition: rescued
[1]; 50 mg/Kg i.p., 15-minute before MeAmph 2 mg/Kg i.p., 71 or 77 dB prepulse, FIG. 3
  rescue of MeAmph impaired PPI inhibition: rescued

## CCOC(=O)c1ncn2c1CN(C)C(=O)c1cc(N=[N+]=[N-])ccc1-2 [Ro 154513, reference compound]
[2]; [5]
  reinstating ketamine induced PPI disruption: reinstated

## CNC1(c2ccccc2Cl)CCCCC1=O (centres unmarked) [KET, ketamine, reference compound]
[1]; [4]
  effect of psychotomimetic alone on pre-pulse inhibition of the startle response: inhibited the pre-pulse inhibition

## O=c1cc(-c2ccc(O)c(O)c2)oc2cc(O)cc(O)c12 [luteolin]
[1]; 10 mg/Kg i.p.
  rescue of PPI disruption induced by methamphetamine: significantly rescued

## COc1ccc(-c2cc(=O)c3c(O)cc(O)cc3o2)cc1 [acacetin]
[3]
  decreasing MeAmph-induced hyperlocomotor activity: active
[1]; 10 mg/Kg i.p.
  rescue of PPI disruption induced by methamphetamine: significantly rescued
